Results: the NIST ThermoML archive (doi:10.1016/j.fluid.2010.10.028)
Numbers after ± are expanded uncertainties.

Assay: xn = mol fraction of the nth substance listed
Conditions: Liquid, Vibrating tube method

CC(C)=O [acetone] + CCCCCCC
Conditions	mass density [kg/m3]
337.71 K, 24950 kPa, x1 = 0.4	746.11 ± 1.3
337.71 K, 24950 kPa, x1 = 0.8992	746.11 ± 1.2
337.71 K, 29870 kPa, x1 = 0.801	735.19 ± 1.3
337.71 K, 29930 kPa, x1 = 0.4	751.13 ± 1.3
337.71 K, 29930 kPa, x1 = 0.8992	751.13 ± 1.3
337.71 K, 34930 kPa, x1 = 0.4	755.89 ± 1.3
337.71 K, 34930 kPa, x1 = 0.8992	755.89 ± 1.3
337.71 K, 39920 kPa, x1 = 0.4	760.43 ± 1.3
337.71 K, 39920 kPa, x1 = 0.8992	760.43 ± 1.3
337.71 K, 44840 kPa, x1 = 0.492	715.3 ± 1.3
337.71 K, 49900 kPa, x1 = 0.4	768.86 ± 1.3
337.71 K, 49900 kPa, x1 = 0.8992	768.86 ± 1.3
337.71 K, 54890 kPa, x1 = 0.4	772.81 ± 1.4
337.71 K, 54890 kPa, x1 = 0.8992	772.81 ± 1.3
337.71 K, 64860 kPa, x1 = 0.4	780.28 ± 1.4
337.71 K, 64860 kPa, x1 = 0.8992	780.28 ± 1.4
337.71 K, 69930 kPa, x1 = 0.492	733.51 ± 1.4
337.71 K, 74770 kPa, x1 = 0.7024	757.51 ± 1.4
337.71 K, 74840 kPa, x1 = 0.4	787.15 ± 1.4
337.71 K, 74840 kPa, x1 = 0.8992	787.15 ± 1.4
337.71 K, 74910 kPa, x1 = 0.492	736.73 ± 1.5
337.71 K, 79750 kPa, x1 = 0.7024	760.71 ± 1.4
337.71 K, 79820 kPa, x1 = 0.4	790.43 ± 1.4
337.71 K, 79820 kPa, x1 = 0.8992	790.43 ± 1.4
337.71 K, 79900 kPa, x1 = 0.492	739.82 ± 1.5
337.71 K, 84890 kPa, x1 = 0.492	742.8 ± 1.5
337.71 K, 89860 kPa, x1 = 0.801	780.47 ± 1.4
337.71 K, 89870 kPa, x1 = 0.492	745.68 ± 1.5
337.71 K, 94760 kPa, x1 = 0.4	799.66 ± 1.5
337.71 K, 94760 kPa, x1 = 0.8992	799.66 ± 1.4
337.71 K, 94820 kPa, x1 = 0.611	759.24 ± 1.5
337.71 K, 94840 kPa, x1 = 0.492	748.47 ± 1.5
337.71 K, 94840 kPa, x1 = 0.801	783.46 ± 1.5
337.71 K, 99730 kPa, x1 = 0.4	802.55 ± 1.5
337.71 K, 99730 kPa, x1 = 0.8992	802.55 ± 1.4
337.71 K, 99820 kPa, x1 = 0.492	751.17 ± 1.6
337.71 K, 104700 kPa, x1 = 0.4	805.37 ± 1.5
337.71 K, 104700 kPa, x1 = 0.8992	805.37 ± 1.5
337.71 K, 104790 kPa, x1 = 0.611	764.72 ± 1.6
337.71 K, 104800 kPa, x1 = 0.492	753.81 ± 1.6
337.71 K, 104800 kPa, x1 = 0.801	789.1 ± 1.5
337.71 K, 109680 kPa, x1 = 0.4	808.11 ± 1.5
337.71 K, 109680 kPa, x1 = 0.8992	808.11 ± 1.5
337.71 K, 109770 kPa, x1 = 0.492	756.37 ± 1.6
337.71 K, 109850 kPa, x1 = 0.611	767.36 ± 1.6
337.71 K, 114650 kPa, x1 = 0.4	810.79 ± 1.5
337.71 K, 114650 kPa, x1 = 0.8992	810.79 ± 1.5
337.71 K, 114850 kPa, x1 = 0.492	758.9 ± 1.6
337.71 K, 114860 kPa, x1 = 0.611	769.89 ± 1.6
337.71 K, 119620 kPa, x1 = 0.4	813.4 ± 1.5
337.71 K, 119620 kPa, x1 = 0.8992	813.4 ± 1.5
337.71 K, 119840 kPa, x1 = 0.492	761.32 ± 1.6
337.71 K, 124840 kPa, x1 = 0.492	763.7 ± 1.7
337.71 K, 124850 kPa, x1 = 0.801	799.52 ± 1.6
337.71 K, 129550 kPa, x1 = 0.4	818.42 ± 1.6
337.71 K, 129550 kPa, x1 = 0.8992	818.42 ± 1.5
337.71 K, 129840 kPa, x1 = 0.801	801.97 ± 1.6
337.71 K, 129850 kPa, x1 = 0.492	766 ± 1.7
337.72 K, 44910 kPa, x1 = 0.4	764.73 ± 1.3
337.72 K, 44910 kPa, x1 = 0.8992	764.73 ± 1.3
337.72 K, 59870 kPa, x1 = 0.4	776.58 ± 1.4
337.72 K, 59870 kPa, x1 = 0.8992	776.58 ± 1.3
337.72 K, 84800 kPa, x1 = 0.4	793.6 ± 1.4
337.72 K, 84800 kPa, x1 = 0.8992	793.6 ± 1.4
337.72 K, 89780 kPa, x1 = 0.4	796.66 ± 1.4
337.72 K, 89780 kPa, x1 = 0.8992	796.66 ± 1.4
337.72 K, 99810 kPa, x1 = 0.611	762.02 ± 1.5
337.72 K, 124590 kPa, x1 = 0.4	815.94 ± 1.5
337.72 K, 124590 kPa, x1 = 0.8992	815.94 ± 1.5
337.72 K, 124870 kPa, x1 = 0.611	774.78 ± 1.6
337.72 K, 129860 kPa, x1 = 0.611	777.16 ± 1.6
347.61 K, 960 kPa, x1 = 0.7024	676.19 ± 1.2
347.61 K, 4840 kPa, x1 = 0.7024	682.43 ± 1.2
347.61 K, 9820 kPa, x1 = 0.7024	689.72 ± 1.2
347.61 K, 14820 kPa, x1 = 0.7024	696.37 ± 1.2
347.61 K, 19810 kPa, x1 = 0.7024	702.46 ± 1.2
347.61 K, 24790 kPa, x1 = 0.7024	708.14 ± 1.3
347.61 K, 29890 kPa, x1 = 0.7024	713.58 ± 1.3
347.61 K, 34890 kPa, x1 = 0.7024	718.57 ± 1.3
347.61 K, 39880 kPa, x1 = 0.7024	723.29 ± 1.3
347.61 K, 44870 kPa, x1 = 0.7024	727.75 ± 1.3
347.61 K, 49860 kPa, x1 = 0.7024	731.98 ± 1.3
347.61 K, 54840 kPa, x1 = 0.7024	736.03 ± 1.4
347.61 K, 59830 kPa, x1 = 0.7024	739.91 ± 1.4
347.61 K, 64820 kPa, x1 = 0.7024	743.63 ± 1.4
347.61 K, 69810 kPa, x1 = 0.7024	747.19 ± 1.4
347.61 K, 74800 kPa, x1 = 0.7024	750.62 ± 1.4
347.61 K, 79780 kPa, x1 = 0.7024	753.92 ± 1.4
347.61 K, 84760 kPa, x1 = 0.7024	757.12 ± 1.5
347.61 K, 89750 kPa, x1 = 0.7024	760.21 ± 1.5
347.61 K, 94730 kPa, x1 = 0.7024	763.2 ± 1.5
